One test has as its system adult male Swiss mice. The test is described as follows: Antispermatogenic screen: single gavage dose to male mice, testes weight and Spermatogenic Index at 72 h. Format: in vivo. The note with it: day 3 (72 h). The procedure:
The compounds of the invention were tested in mice for their effects on spermatogenesis three days after a single oral dose by the procedure described in Cook et al (1995) below. Compounds active in this test have been shown also to be anti-fertility compounds.
Compounds were screened for antispermatogenic activity by dosing male mice on day 1 with a gavage dose of control vehicle, positive control (compound 1) or compound of the invention. At 72 h after dosing, animals were killed and the testes were excised, trimmed of fat, and weighed. One testis was examined histologically and rated for spermatogenic potential using the Spermatogenic Index (J. M. Whitsett, P. F. Noden, J. Cherry and A. D. Lawton, J. Reprod. Fertil., 72, 277 (1984), which is a semiquantitative estimate of the sperm producing ability of the testes The index is based on histological appearance of the spermatogenic cells in the seminiferous tubules. A scale of 1 to 6 is used with 5 to 6 being the normal status. A second assessment was based on the weight of the testes.
Tables 1 and 2 show pertinent biological results in terms of the change in testes weight (TW) and spermatogenic index (SI) relative to a control containing only the administration vehicle, but no indenopyridine. In Tables 1 and 2, R^3 and R^4 refer to structures Ib, where R^3 is in the para position; R^1 is ethyl; R^2 is methyl; and R^5 is hydrogen.

The test system of the next test is Candida albicans. Briefly: Antifungal susceptibility testing (NCCLS, MIC/MFC) against C. albicans. Format: cell-based. The note with it: for CFU for MFC at 200 / CFU for MFC at 300 / Lowest [Active] / CFU for MFC at 100: C. albicans (19 hours); for CFU for MFC at 200: concentration 200; for CFU for MFC at 300: concentration 300; for Lowest [Active]: concentrations 300, 200, 100, unit not given, N/A = no active concentration; for CFU for MFC at 100: concentration 100; for Lowest MIC / Lowest MFC: C. albicans; for Lowest MIC: lowest concentration that appears to have no growth; for Lowest MFC: lowest concentration that kills >= 98% of the cells in the well. Details: Lowest [Active]: unit not given here. On the procedure: (§1) Antifungal susceptibility testing was performed following the NCCLS guidelines with minor modifications. Briefly, a suspension of Candida albicans cells was prepared from pure cultures grown overnight on yeast-malt extract (YM) agar at 35° C. Several small colonies were removed from a YM agar plate and transferred to 5 ml of 0.85% saline. The cells were suspended by 15 seconds of vortexing and the cell density of the resulting suspension was determined using a spectrophotometer. The cell density was adjusted by addition of 0.85% saline until the transmittance matched that of a 0.5 McFarland standard when measured at a wavelength of 530 nm. An aliquot of this suspension was diluted 1:1000 in RPMI-MOPS to yield a working suspension. A similar suspension of Aspergillus fumigatus spores was obtained by using spores stored at […] in 0.85% saline. These spores were diluted in 0.85% saline to match the McFarland standard transmittance. This suspension was then further diluted 1:50 in RPMI-MOPS to produce the working inoculum suspension.
(§2) Dilution series of the test compounds were made in RPMI-MOPS containing 2% DMSO. An aliquot of each dilution was added in duplicate to the wells of a sterile 96-well, flat bottom microtiter plate. Then, an aliquot of either the C. albicans cell suspension or the A. fumigatus spore suspension were added to each well for a final volume of 200 μl. The plates were then incubated at […]. […] A similar determination was made for the A. fumigatus plates after 48 hours. […] The numbers of colony forming units (CFU) were counted and these values used to calculate the percent survival of cells or spores in inocula relative to the number of CFUs in the working inoculum suspension. The minimum fungicidal concentration (MFC) was the lowest concentration of test compound with a percent survival of less than 2%.

The subject of the next test is Aspergillus fumigatus. The test is described as follows: Antifungal susceptibility testing (NCCLS, MIC/MFC) against A. fumigatus. In kind it is cell-based. The following applies: for CFU for MFC at 100 / CFU for MFC at 200 / CFU for MFC at 300 / Lowest [Active]: A. fumigatus (48 hours); for CFU for MFC at 100: concentration 100; for CFU for MFC at 200: concentration 200; for CFU for MFC at 300: concentration 300; for Lowest [Active]: concentrations 300, 200, 100, unit not given, N/A = no active concentration; for Lowest MIC / Lowest MFC: A. fumigatus; for Lowest MIC: lowest concentration that appears to have no growth; for Lowest MFC: lowest concentration that kills >= 98% of the cells in the well. Details: Lowest [Active]: unit not given here. The procedure: as §1, §2

Where [1] appears, read: racemic compounds, 1 mg/kg single gavage dose, vehicle 90% water, 7% Tween20, 3% ethanol.
[2] abbreviates: racemic compounds, 3 mg/kg single gavage dose, vehicle 90% water, 7% Tween20, 3% ethanol.
The mark [3] stands for this setting: racemic compounds, 10 mg/kg single gavage dose, vehicle 90% water, 7% Tween20, 3% ethanol.
Where [4] appears, read: Table 2, 1 mg/kg single gavage dose, vehicle 1% Tween20 in water.
[5] abbreviates: Table 2, 3 mg/kg single gavage dose, vehicle 1% Tween20 in water.
The mark [6] stands for this setting: Table 2, 10 mg/kg single gavage dose, vehicle 1% Tween20 in water.
Where [7] appears, read: Table 2, 30 mg/kg single gavage dose, vehicle 1% Tween20 in water.
Setting [8] is: Table 2, 0.3 mg/kg single gavage dose, vehicle 1% Tween20 in water.

Marks after values point to notes of the source that are not given here.

The text below walks through data of patent publication US8193213B2, “Spermicidal and/or antifungal composition and methods of using the same” (priority 2003, dated 2012).

`CCN1CC[C@@H]2[C@@H](c3ccc(C(=O)O)cc3)c3cc(C)c(I)cc3[C@@H]2C1.Cl` (racemic) [Compound 17, (4aRS,5SR,9bRS)-2-Ethyl-2,3,4,4a,5,9b-hexahydro-8-iodo-7-methyl-5-(4-carboxyphenyl)-1H-indeno[1,2-c]pyridine Hydrochloride]: the results for the “SI change (%) (Spermatogenic Index, % change from vehicle control)” value with adult male Swiss mice (setting [1]), with adult male Swiss mice (setting [2]) and with adult male Swiss mice (setting [3]) were −67%*, −66%* and −76%*, respectively. Moreover, the “TW change (%) (testes weight, % change from vehicle control)” value (from here on “TW change (%)”) with adult male Swiss mice (setting [1]) was −18%; in the test with adult male Swiss mice (setting [2]) it was −9%; with adult male Swiss mice (setting [3]), −32%*.

Turning to `CCN1CC[C@@H]2[C@@H](c3ccc(C(=O)O)cc3)c3cc(C)c(Cl)cc3[C@@H]2C1.Cl` (racemic) [Compound 20, (4aRS,5SR,9bRS)-2-Ethyl-8-Chloro-7-Methyl-2,3,4,4a,5,9b-Hexahydro-5-(4-carboxylphenyl)-1H-Indeno[1,2-c]pyridine Hydrochloride], the “SI change (%) (Spermatogenic Index, % change from vehicle control)” value in the test with adult male Swiss mice (setting [1]) is −55%*; in the test on adult male Swiss mice (setting [2]) it was −66%*; in the test with adult male Swiss mice (setting [3]), −72%*. Besides, the “TW change (%)” value in the test on adult male Swiss mice (setting [1]) is on record as −16%; with adult male Swiss mice (setting [2]), −23%; in the test on adult male Swiss mice (setting [3]), −22%.

Consider `CCN1CCC2C(C1)c1ccc(C)cc1C2c1ccc(OC)cc1.Cl` (racemic) [Compound 4587-029], for which, in the test on Candida albicans, the “CFU for MFC at 200” value is “Static (Static = well looked clear, but <98% killed)”; the “CFU for MFC at 300” value is listed as “Cidal (Cidal = >98% killed)”; the “Lowest [Active]” value is on record as 200. In addition, in the test with Aspergillus fumigatus, the “CFU for MFC at 100” value was “Cidal (Cidal = >98% killed)”, the “CFU for MFC at 200” value is “Cidal (Cidal = >98% killed)”, the “CFU for MFC at 300” value is given as “Cidal (Cidal = >98% killed)” and the “Lowest [Active]” value came out at 100.

`CCN1CCC2C(C1)c1ccccc1C2c1ccccc1.Cl` (racemic) [Compound 4587-037]: in the test on Candida albicans, the “CFU for MFC at 300” value is given as “Cidal (Cidal = >98% killed)” and the “Lowest [Active]” value amounted to 300. In the test with Aspergillus fumigatus, the “CFU for MFC at 200” value is “Cidal (Cidal = >98% killed)”; the “CFU for MFC at 300” value was “Static* (Static = well looked clear, but <98% killed)”; the “Lowest [Active]” value worked out at 200.

As for `CCN1CCC2=C(c3ccc(C)cc3)c3cc(C)ccc3C2C1.Cl` (racemic) [Compound 4587-040], in the test on Candida albicans, the “CFU for MFC at 100” value is reported as “Cidal (Cidal = >98% killed)”, the “CFU for MFC at 200” value is “Cidal (Cidal = >98% killed)”, the “CFU for MFC at 300” value was “Cidal (Cidal = >98% killed)” and the “Lowest [Active]” value is recorded as 100. Moreover, in the test with Aspergillus fumigatus, the “CFU for MFC at 100” value is given as “Cidal (Cidal = >98% killed)”, the “CFU for MFC at 200” value is on record as “Cidal (Cidal = >98% killed)”, the “CFU for MFC at 300” value is listed as “Cidal (Cidal = >98% killed)” and the “Lowest [Active]” value was 100.

On to `CCN1CCC2C(C1)c1ccc(C)cc1C2c1ccc(CO)cc1.Cl` (racemic) [Compound 4587-055], for which, in the test on Candida albicans, the “CFU for MFC at 300” value is “Static (Static = well looked clear, but <98% killed)” and the “Lowest [Active]” value is 300.

For `CCN1CCC2C(C1)c1ccc(C)cc1C2c1ccc(C#N)cc1.Cl` (racemic) [Compound 4587-060], in the test with Aspergillus fumigatus, the “CFU for MFC at 200” value was “Cidal (Cidal = >98% killed)” and the “Lowest [Active]” value was 200.

Consider `CCCOC(=O)c1ccc(C2c3cc(C)ccc3C3CN(CC)CCC32)cc1.Cl` (racemic) [Compound 4587-062], for which, in the test with Candida albicans, the “Lowest MIC” value came to 20 µg/mL and the “Lowest MFC” value was 20 µg/mL. Further, in the test with Aspergillus fumigatus, the “Lowest MIC” value is 10 µg/mL and the “Lowest MFC” value came to 10 µg/mL.

As to `CCc1ccc2c(c1)[C@@H](c1ccc(C(=O)OC)cc1)[C@@H]1CCN(CC)C[C@H]21.Cl` (racemic) [Compound 4587-064], in the test with Candida albicans, the “CFU for MFC at 100” value is listed as “Static (Static = well looked clear, but <98% killed)”; the “CFU for MFC at 200” value is listed as “Cidal (Cidal = >98% killed)”; the “CFU for MFC at 300” value is “Cidal (Cidal = >98% killed)”; the “Lowest [Active]” value turned out to be 100. Moreover, in the test with Candida albicans, the “Lowest MIC” value is 100 µg/mL and the “Lowest MFC” value is 100 µg/mL. Also, in the test with Aspergillus fumigatus, the “CFU for MFC at 100” value was “Cidal (Cidal = >98% killed)”, the “CFU for MFC at 200” value is “Cidal (Cidal = >98% killed)”, the “CFU for MFC at 300” value is “Cidal (Cidal = >98% killed)” and the “Lowest [Active]” value was 100. In the test with Aspergillus fumigatus, the “Lowest MIC” value worked out at 50 µg/mL and the “Lowest MFC” value was determined as 75 µg/mL.

Turning to `CCN1CC[C@@H]2[C@@H](c3ccc(C(=O)OC)cc3)c3cc(C)ccc3[C@@H]2C1.Cl` (single isomer, unassigned) [3 (l), (1)-Enantiomer of (4aRS,5SR,9bRS)-2-Ethyl-2,3,4,4a,5,9b-hexahydro-7-methyl-5-(4-carbomethoxyphenyl)-1H-indeno[1,2-c]pyridine Hydrochloride], the “SI change (%) (Spermatogenic Index, % change from vehicle control)” value in the test with adult male Swiss mice (setting [4]) is recorded as 3%; in the test on adult male Swiss mice (setting [5]) it was −2%; with adult male Swiss mice (setting [6]) it was −33%*; in the test on adult male Swiss mice (setting [7]) it was −64%*. In addition, the “TW change (%)” value was 8% with adult male Swiss mice (setting [4]), −12% in the test on adult male Swiss mice (setting [5]), −13% with adult male Swiss mice (setting [6]) and −30%* in the test on adult male Swiss mice (setting [7]).

`CCN1CCC2C(C1)c1cc(I)c(C)cc1C2c1ccc(C(=O)OC)cc1` (single isomer, unassigned) [18 (l)]: the “SI change (%) (Spermatogenic Index, % change from vehicle control)” value is given as −34%* with adult male Swiss mice (setting [8]), −66%* in the test with adult male Swiss mice (setting [4]), −71%* with adult male Swiss mice (setting [5]) and −72%* in the test with adult male Swiss mice (setting [6]). Further, the “TW change (%)” value is listed as −11%* in the test with adult male Swiss mice (setting [8]), −21%* with adult male Swiss mice (setting [4]), −27%* in the test on adult male Swiss mice (setting [5]) and −31%* with adult male Swiss mice (setting [6]).

Turning to `C[C@@H]1[C@H](O)[C@@H](C)/C=C/C=C/C=C/C=C/C=C/C=C/C=C/[C@H](O[C@@H]2O[C@H](C)[C@@H](O)[C@H](N)[C@@H]2O)C[C@@H]2O[C@](O)(C[C@@H](O)C[C@@H](O)[C@H](O)CC[C@@H](O)C[C@@H](O)CC(=O)O[C@H]1C)C[C@H](O)[C@H]2C(=O)O` [AMP B, reference compound], the “Lowest MIC” value in the test on Candida albicans was 0.5 µg/mL; in the test on Aspergillus fumigatus it was 2 µg/mL.

Turning to `CCN1CCC(C(c2ccc(C)cc2)c2cccc(C)c2)CC1.Cl` (stereo not drawn) [Compound 4587-006], in the test on Candida albicans, the “CFU for MFC at 300” value is on record as “Static (Static = well looked clear, but <98% killed)” and the “Lowest [Active]” value is 300.
